Laboratory results as given in patent publication US7731985B2, “4-aminopyrimidines and their use for the antimicrobial treatment of surfaces” (Ciba Specialty Chemicals Corporation, priority 2002, dated 2010).

Assays:
Experiment in all cases: MIC in microtitre plates (Example 10)
Assay type in all cases: cell-based
Set-up in all cases: unit not given here
Settings in all cases: microtitre plate, 48 hours at 37° C., ≦20% growth
[1] = test system: Candida albicans ATCC 10231 (=CA)
Experimental: (§1) Determination of the Minimum Inhibitory Concentration (MIC Value) in Microtitre Plates Casein/soymeal peptone broth for preparation of pre-cultures of test bacteria and yeast Bacteria: • Pseudomonas aeruginosa CIP A-22 (=PA) • Escherichia coli NCTC 8196 (=EC) • Staphylococcus aureus ATCC 9144 (=SA) • Candida albicans ATCC 10231 (=CA) The test substances are pre-dissolved in dimethyl sulfoxide (DMSO) and tested in a dilution series of 1:2. Bacteria and yeast are cultured overnight in CASO broth. All the test organism suspensions are adjusted to an organism count of 1-5×10^6 CFU/ml using […] sodium chloride solution. The test substances are pre-pipetted into microtitre plates in amounts of 8 μl per well. The pre-adjusted organism suspensions are diluted 1:100 in CASO broth and are added in amounts of 192 μl per well to the test substances. The test batches are incubated for 48 hours at 37° C. The incubation, the growth is determined on the basis of the turbidity of the test batches (optical density) at 620 nm in a microplate reader. The minimum inhibitory concentration (MIC value) is the concentration of substance at which (compared to the growth of the control) an appreciable inhibition of growth (≦20% growth) of the test organisms is observed. Three microtitre plates are used for each test organism and substance concentration. All the substances are tested in duplicate.

[2] = test system: Escherichia coli NCTC 8196 (=EC)
Experimental: as §1

[3] = test system: Pseudomonas aeruginosa CIP A-22 (=PA)
Experimental: as §1

[4] = test system: Staphylococcus aureus ATCC 9144 (=SA)
Experimental: as §1

| SMILES | MIC CA [1] | MIC EC [2] | MIC PA [3] | MIC SA [4] |
| --- | --- | --- | --- | --- |
| CCCCCCCCCCCCCCNc1cc(C)nc(C)n1 [compound 78] | <3.75 | 7.5 | >120 | <3.75 |
| NCCCCCCCCNc1nc(-c2ccccc2)nc(-c2cccc(C(F)(F)F)c2)c1-c1ccccc1 [compound 20] | 15 | 30 | >120 | 15 |
| CCCCCCCCCCCCCCNc1cc(C)nc(-c2ccc(C(C)(C)C)cc2)n1 [compound 72] | 7.5 | 15 | >120 | 7.5 |
| COc1ccccc1-c1nc(-c2ccccc2)nc(N2CCC(CCCC3CCNCC3)CC2)c1-c1ccccc1 [compound 28] | >120 | >120 | >120 | <3.75 |
| CCCCCCCCCCCCNc1cc(C)nc(C(C)C)n1 [compound 93] | 7.5 | 15 | >120 | <3.75 |
| Cc1cc(NC2CCCCC2)nc(-c2cccnc2)n1 [compound 46] | 120 | >120 | >120 | 120 |
| CCCCCCCCCCNc1cc(C)nc(C(C)C)n1 [compound 105] | 7.5 | 15 | >120 | 7.5 |
| CCCCCCNc1cc(C)nc(-c2ccc(-c3ccccc3)cc2)n1 [compound 108] | >120 | >120 | >120 | 30 |
| CCCCCCNc1cc(C)nc(-c2csc(C)n2)n1 [compound 118] | 15 | 60 | >120 | 7.5 |
| CCCCCCCCCCCCCCNc1cc(C)nc(-c2cccnc2)n1 [compound 38] | <3.75 | 7.5 | >120 | <3.75 |
| Cc1cc(NC(C)CC(C)C)nc(C2CC2)n1 (centres unmarked) [compound 145] | 120 | >120 | >120 | >120 |
| Cc1cc(NC(C)CC(C)C)nc(C)n1 (centres unmarked) [compound 143] | 120 | >120 | >120 | >120 |
| CCCCCCNc1cc(C)nc(-c2cccc(N)c2)n1 [compound 114] | 30 | >120 | >120 | 15 |
| CCCCCCCCCCCCCCNc1cc(C)nc(C2CC2)n1 [compound 80] | 7.5 | 7.5 | >120 | <3.75 |
| FC(F)(F)c1cccc(-c2nc(-c3ccccc3)nc(N3CCNCC3)c2-c2ccccc2)c1 [compound 16] | 15 | 15 | >120 | 7.5 |
| CCN(CC)CCCNc1cc(C)nc(-c2cccnc2)n1 [compound 44] | 120 | >120 | >120 | 120 |

| SMILES | MIC CA [1] | MIC EC [2] | MIC PA [3] | MIC SA [4] |
| --- | --- | --- | --- | --- |
| NCCN1CCN(c2nc(-c3ccccc3)nc(-c3cccc4ccccc34)c2-c2ccccc2)CC1 [compound 3] | 7.5 | 15 | >120 | 7.5 |
| COc1cccc(-c2nc(-c3ccccc3)nc(NCCCN3CCN(CCCN)CC3)c2-c2ccccc2)c1 [compound 25] | 120 | 60 | >120 | >120 |
| Cc1cc(NC(C)CC(C)C)nc(-c2csc(C)n2)n1 (centres unmarked) [compound 147] | 120 | >120 | >120 | 60 |
| CCCCCCCCCCCCCCNc1cc(C)nc(-c2ccc(C)cc2)n1 [compound 79] | <3.75 | <3.75 | >120 | <3.75 |
| CCCCCCCCCCNc1cc(C)nc(-c2cccc(N)c2)n1 [compound 102] | 15 | 30 | >120 | 7.5 |
| CCCC(C)Nc1cc(C)nc(-c2cccnc2)n1 (centres unmarked) [compound 40] | 120 | >120 | >120 | 60 |
| CN(CCCN)CCCNc1nc(-c2ccccc2)nc(-c2cccc(C(F)(F)F)c2)c1-c1ccccc1 [compound 21] | <3.75 | <3.75 | 7.5 | 7.5 |
| NCCCCCCCCCCCCNc1nc(-c2ccccc2)nc(-c2ccc(F)cc2)c1-c1ccccc1 [compound 8] | 120 | 30 | >120 | 30 |
| CCCCCCCCNc1cc(C)nc(-c2cccs2)n1 [compound 59] | 60 | 60 | >120 | 15 |
| CCCN(CCC)c1cc(C)nc(-c2cccnc2)n1 [compound 52] | 120 | >120 | >120 | 30 |
| CCCCCCNc1cc(C)nc(-c2ccc(N)cc2)n1 [compound 120] | 30 | 120 | >120 | 30 |
| CCCCCCCCCCNc1cc(C)nc(-c2ccncc2)n1 [compound 100] | 15 | 15 | >120 | 15 |
| CCCCCCCCNc1cc(C)nc(-c2ccc(-c3ccccc3)cc2)n1 [compound 57] | 120 | >120 | >120 | 60 |
| CCCCCCCCNc1cc(C)nc(C2CC2)n1 [compound 67] | 7.5 | 30 | >120 | 7.5 |
| CCCCCCCCCCCCNc1cc(C)nc(C)n1 [compound 89] | <3.75 | <3.75 | >120 | <3.75 |
| CCCCC(CC)CNc1cc(C)nc(C2CC2)n1 (centres unmarked) [compound 137] | 15 | 30 | >120 | 15 |

Second part, the molecule after the results:

| MIC CA [1] | MIC EC [2] | MIC PA [3] | MIC SA [4] | SMILES |
| --- | --- | --- | --- | --- |
| 7.5 | 15 | >120 | <3.75 | CCCCCCCCCCCCNc1cc(C)nc(-c2csc(C)n2)n1 [compound 94] |
| 30 | 120 | >120 | <3.75 | CCCCC(CC)CNc1cc(C)nc(-c2cccnc2)n1 (centres unmarked) [compound 42] |
| <3.75 | 7.5 | >120 | <3.75 | CCCCCCCCCCCCCCNc1cc(C)nc(-c2ccc(C)c(F)c2)n1 [compound 83] |
| 30 | 15 | >120 | 15 | Cc1ccc(-c2nc(-c3ccccc3)nc(NCCOCCOCCN)c2-c2ccccc2)cc1 [compound 13] |
| 120 | 120 | >120 | 30 | CCCCCCCCNc1cc(C)nc(-c2cccc(F)c2)n1 [compound 61] |
| <3.75 | 15 | >120 | 7.5 | CCCCCCCCCCCCNc1cc(C)nc(-c2cccc(N)c2)n1 [compound 90] |
| 120 | >120 | >120 | 30 | Cc1cc(NC(C)CC(C)C)nc(-c2ccncc2)n1 (centres unmarked) [compound 142] |
| 15 | 30 | >120 | 15 | CNCCN(C)c1nc(-c2ccccc2)nc(-c2cccc(C(F)(F)F)c2)c1-c1ccccc1 [compound 17] |
| 120 | >120 | >120 | 60 | CCCCCCNc1cc(C)nc(-c2cccs2)n1 [compound 110] |
| 30 | 120 | >120 | 7.5 | CCCCCCNc1cc(C)nc(C)n1 [compound 113] |
| 7.5 | 15 | >120 | 7.5 | CCCCCCCCCCCCCCNc1cc(C)nc(-c2cccc(F)c2)n1 [compound 75] |
| >120 | >120 | >120 | 7.5 | NCCCCCCCCCCNc1nc(-c2ccccc2)nc(-c2cccc3ccccc23)c1-c1ccccc1 [compound 5] |
| 7.5 | 30 | >120 | <3.75 | CCCCCCCCNc1cc(C)nc(-c2csc(C)n2)n1 [compound 69] |
| 30 | 30 | >120 | 15 | CNCCN(C)c1nc(-c2ccccc2)nc(-c2ccc(C)cc2)c1-c1ccccc1 [compound 10] |
| 120 | >120 | >120 | 60 | Cc1cc(NCc2ccccc2)nc(-c2cccnc2)n1 [compound 45] |
